Consider 4 compounds from ChEMBL document CHEMBL1141256, “Panaxadiol glycosides that induce neuronal differentiation in neurosphere stem cells” (2007).

Activity calls are given as the source filed them. The rule behind the calls is not given here.

A short description of test [1]: Neurogenesis in TOPRO+ mouse neural stem cells at 8 uM after 24 hrs relative to control.
Test [2] can be described thus: Neurogenesis in TUJ+MAP2+ mouse neural stem cells at 8 uM for 24 hrs relative to control.
A short description of test [3]: Neurogenesis in GFAP+ mouse neural stem cells at 8 uM after 24 hrs relative to control.
In test [4] the test system is Neural stem cell. As to the kind of experiment: Decrease in number of neurons in TUJ/MAP2+ mouse neural stem cells at 15 uM.
The test system of test [5] is Neural stem cell. As to the kind of experiment: Decrease in number of neurons in TUJ/MAP2+ mouse neural stem cells at 8 uM after 72 hrs.
Test [6] can be described thus: Neurogenesis of TUJ/MAP2+ mouse neural stem cells at 8 uM assessed as calcium influx relative to control.
The subject of test [7] is Neural stem cell. As to the kind of experiment: Neurogenesis of TUJ/MAP2+ mouse neural stem cells at 8 uM afte 12, 24, 48 hrs.
The nature of test [8]: Neurogenesis of TUJ/MAP2+ mouse neural stem cells at 8 uM in presence of 5 uM nifedipine assessed as calcium influx relative to control.
Test [9] deals with Neural stem cell. As to the kind of experiment: Increase in calcium concentration in mouse neural stem cells at 5 uM assessed as […] ratio F350/F380. The settings on record: TDE = time-dependent effect.
Test [10] concerns Neural stem cell. As to the kind of experiment: Neuronal differentiation in TUJ/MAP2+ EGF responsive mouse neural stem cells at 1 to 8 uM after 72 hrs.
Test [11] has as its system Neural stem cell. As to the kind of experiment: Inhibition of calcium induced neurogenesis in mouse neural stem cells in presence of 10 uM nifedipine.
Test [12] is described as follows: Neurogenesis in GFAP+ mouse neural stem cells at 1 uM relative to control.
Test [13] is described as follows: Neurogenesis in TOPRO+ mouse neural stem cells at 1 uM relative to control.
Test [14] can be described thus: Neurogenesis in TUJ+MAP2+ mouse neural stem cells at 1 uM relative to control.

`CC(C)=CCC[C@](C)(O)[C@H]1CC[C@]2(C)[C@@H]1[C@H](O)C[C@@H]1[C@@]3(C)CC[C@H](O[C@@H]4O[C@H](CO)[C@@H](O)[C@H](O)[C@H]4O[C@@H]4O[C@H](CO)[C@@H](O)[C@H](O)[C@H]4O)C(C)(C)[C@@H]3CC[C@]12C`: the Activity in [1] was 140%; in [2] it was 16.1%; in test [3] it was 35.9%.
For `CC(C)=CC/C=C(\C)[C@H]1CC[C@]2(C)[C@@H]1[C@H](O)C[C@@H]1[C@@]3(C)CC[C@H](O[C@@H]4O[C@H](CO)[C@@H](O)[C@H](O)[C@H]4O[C@@H]4O[C@H](CO)[C@@H](O)[C@H](O)[C@H]4O)C(C)(C)[C@@H]3CC[C@]12C` [GINSENOSIDE RG5], the result in the test with Neural stem cell [4], with Neural stem cell [5], in the test with Neural stem cell [7], in the test with Neural stem cell [10] and with Neural stem cell [11] was Active. Besides, the Activity was 132% in test [1]; 29.6% in [6]; 30.5% in test [2]; 4% in test [8]; “tde” in the test on Neural stem cell [9]; 25.2% in test [3].
In the case of `C=C(CCC=C(C)C)[C@H]1CC[C@]2(C)[C@@H]1[C@H](O)C[C@@H]1[C@@]3(C)CC[C@H](O[C@@H]4O[C@H](CO)[C@@H](O)[C@H](O)[C@H]4O[C@@H]4O[C@H](CO)[C@@H](O)[C@H](O)[C@H]4O)C(C)(C)[C@@H]3CC[C@]12C` [GISENOSIDE RK1], the Activity in [1] stood at 107%; in test [2] it was 28.4%; in [3], 28.8%.
Regarding `CC1=C(/C=C/C(C)=C/C=C/C(C)=C/C(=O)O)C(C)(C)CCC1` [TRETINOIN], the Activity in test [12] turned out to be 36.3%; in [13] it was 148%; in test [14] it was 16.5%.
